US20060178342A1, “Hyaluronan as a cytotoxic agent, drug pre-sensitizer and chemo-sensitizer in the treatment of disease” (priority 2001, published 2006)
Where a name gives a salt, the structure may show the parent alone.

Experiments:
[1] = tested on: SW1222; experiment: Drug cytotoxicity assay, Camptosar ± 100 nM hyaluronan; type: cell-based; conditions: Homo sapiens, 48 hours continuous exposure, HyCAMP = Camptosar + 100 nM hyaluronan
Excerpt: (§1) Human Colon Carcinoma Cell Lines HT-29, HCT-116, SK-CO-1, SW620, SW1222 were obtained from the Peter MacCallum, Cancer Institute, Melbourne. […] Human colon carcinoma cell lines 1215 and LIM2099 were kindly donated by Dr R Whitehead, Ludwig Institute, Melbourne. […] The various concentrations of Camptosar were achieved by diluting in the appropriate amount of growth media The HCT-116, HT-29, SK-CO-1, LIM1215, LIM2099, SW620 and SW1222 cell lines were routinely grown to 80% confluency. The cells were removed from the culture flask and counted using the haematocytometer. The cells HT-29, HCT-116, SK-CO-1, SW620 and SW1222 were resuspended to 15,000 cells/ml of cell-specific media. The LIM1215 and LIM2099 were resuspended to 30,000 cells/ml of cell-specific media. The cells were plated into 48 well culture plates (1 cm^2 surface area) by adding 1 ml of cell suspension per well. The cells were allowed to attach overnight prior to exposure to the test media. The cells were continuously exposed to the following concentrations of test media: 0 μg/ml, 0.25 μg/ml, 0.5 μg/ml, 1 μg/ml, 5 μg/ml, 25 μg/ml and 50 μg/ml Camptosar±100 nM hyaluronan (Modal Mw 850,000). The cells were continuously incubated with the test media for 48 hours. On the day of analysis, the cells were washed with Hanks Balanced Salt Solution. Subsequently, the cells were removed by trypsinization with 0.25% trypsin/EDTA. An aliquot of the trypsinized cell suspension was counted by the Coulter Counter. The raw duplicate or triplicate counts per well were obtained from the Z2 coulter counter. The counts will be averaged and will be expressed as percentage of no drug control.

[2] = tested on: HT-29; experiment: as above; type: cell-based; conditions: Homo sapiens, 48 hours continuous exposure, HyCAMP = Camptosar + 100 nM hyaluronan
Excerpt: as §1

[3] = tested on: LIM 2099; experiment: as above; type: cell-based; conditions: Homo sapiens; 48 hours continuous exposure; HyCAMP = Camptosar + 100 nM hyaluronan
Excerpt: as §1

[4] = tested on: SK-CO-1; experiment: as above; type: cell-based; conditions: Homo sapiens, 48 hours continuous exposure, HyCAMP = Camptosar + 100 nM hyaluronan
Excerpt: as §1

[5] = tested on: LIM 1215; experiment: as above; type: cell-based; conditions: Homo sapiens, LIM1215; 48 hours continuous exposure; HyCAMP = Camptosar + 100 nM hyaluronan
Excerpt: as §1

[6] = tested on: HCT-116; experiment: as above; type: cell-based; conditions: Homo sapiens, 48 hours continuous exposure, HyCAMP = Camptosar + 100 nM hyaluronan
Excerpt: as §1

[7] = tested on: SW 620; experiment: as above; type: cell-based; conditions: Homo sapiens, 48 hours continuous exposure, HyCAMP = Camptosar + 100 nM hyaluronan
Excerpt: as §1

[8] = In vivo toxicology, daily iv Camptosar or HyCAMP; conditions: for immediate neurological toxicity, early or late on-set diarrhea: Camptosar or HyCAMP; for LD50: iv
[9] = tested on: Human LIM1215 colon cancer xenografts; experiment: 14-week efficacy study, irinotecan ± HA in colon cancer xenografts; type: in vivo, mouse; conditions: 50 mg/kg weekly; listed as irinotecan, hydrochloride
Excerpt: Human LIM1215 colon cancer xenografts were inoculated into the mammary fat pad of athymic […] nude mice. Mice were randomly distributed into eight treatment groups (8 mice per group).
The treatment regime comprised of injections on Day 1 of a 7-day cycle for duration of fourteen weeks. Primary tumor volume, animal body mass, energy levels and food consumption were monitored three times weekly.
Athymic CBA/WEHI nude female mice (Walter and Eliza Hall Research Institute, Melbourne, Australia), 6 to 8 weeks old, were maintained under specific pathogen-free conditions, with sterilized food and water available ad libitum. Each mouse received one injection containing 1×10^7 cells in 50-100 μl. […]
Any animals with a tumor volume expressed as a percentage of body weight outside 0.25±0.10 (mean±1 SD) were excluded from data analysis. […]
The experimental end-point for each animal occurred either when the animal had to be euthanized due to a high degree of disease progression or when the 14-week study had been completed. The animals were monitored three times weekly and the following criteria were established to determine whether an animal had reached the experimental end point: tumour mass is greater than 10% of the animals total body mass; the animal is metabolically stressed (i.e. losing weight); or the animal is immobilized.

[10] = 14-week study: treatment toxicity and weight; conditions: 50 mg/kg weekly
[11] = tested on: human breast cancer cells; experiment: Breast cancer cell count assay, cell line not specified or pooled; type: cell-based; conditions: Homo sapiens; cell line not stated; read-out: IC50 of adriamycin
Method: The cell suspensions were counted with an automated cell counter (ZM-2 Coulter Counter) by adding 15 mL saline+0.2 ml of cell suspension. • Cells were resuspended to a number of: […] The cell suspensions were counted with an automated cell counter (ZM-2 Coulter Counter) by adding 15 mL saline+0.2 ml of cell suspension. Results were expressed as % of no drug control which was calculated as: […]

[12] = substance implied by list of adriamycin groups; cited from earlier work
[13] = 6-week study: treatment toxicity (body mass, blood, organ mass, survival); conditions: 30 mg/kg 5-FU

CCc1c2c(nc3ccc(OC(=O)N4CCC(N5CCCCC5)CC4)cc13)-c1cc3c(c(=O)n1C2)COC(=O)[C@]3(O)CC [Camptosar, irinotecan hydrochloride]
IC50 [1]: 32 µM | IC50 [2]: 16 µM | IC50 [3]: 31 µM | IC50 [4]: 5 µM | IC50 [5]: 16 µM | IC50 [6]: 1.5 µM | IC50 [7]: 10 µM | accumulative dose received without severe adverse effects ([8]; 25 mg/kg daily iv): 350 mg/kg | body weight lost compared to HyCAMP group ([8]; 25 mg/kg daily iv): 18% | survival time ([8]; 25 mg/kg daily iv (HyCAMP: + 13.3 mg/kg HA)): 14 days | immediate neurological toxicity, early or late on-set diarrhea ([8]; 25 mg/kg daily iv): did not exhibit any immediate neurological toxicity, early or late on-set diarrhea | survival time ([8]; 50 mg/kg daily iv): ≤ 12 days | immediate neurological toxicity, early or late on-set diarrhea ([8]; 50 mg/kg daily iv): did not exhibit any immediate neurological toxicity, early or late on-set diarrhea | diarrhea grade ([8]; 100 mg/kg daily iv): 2-3 Grade | survival time ([8]; 100 mg/kg daily iv): ≤ 7 days | onset of neurological effects after injection ([8]; 100 mg/kg iv): 30 seconds | time to fully recuperate from neurological effects ([8]; 100 mg/kg iv): 5 h | onset of neurological effects after injection ([8]; 150 mg/kg iv): 30 seconds | recuperation from neurological effects ([8]; 150 mg/kg iv): did not recuperate | onset of neurological effects after injection ([8]; 200 mg/kg iv): 30 seconds | recuperation from neurological effects ([8]; 200 mg/kg iv): did not recuperate | organ mass compared to HyCAMP treatment group ([8]; 50-100 mg/kg): significant increase in the mass of the stomach, lungs, spleen and brain | LD50 at 14 days ([8]; male, F1 CBAXC57 (out-bred), mouse, in vivo, intravenous): 475 to 550 mg/kg | LD50 ([8]; male, F1 CBAXC57 (out-bred), mouse, in vivo, 50 mg/kg): 475 mg/kg | LD50 ([8]; male, F1 CBAXC57 (out-bred), mouse, in vivo, 100 mg/kg): 550 mg/kg | lethal dose ([8]; single bolus iv): > 100 mg/kg | population survival to the end of the 14-week study [9]: approximately 57% | degree of observed weight loss, irinotecan vs HyCAMP groups [10]: comparable

COc1cccc2c1C(=O)c1c(O)c3c(c(O)c1C2=O)C[C@@](O)(C(=O)CO)C[C@@H]3O[C@H]1C[C@H](N)[C@H](O)[C@H](C)O1 [adriamycin, doxorubicin, reference compound]
IC50 [11]: 0.09 µM | Mouse LD50 [12]: 10 mg/kg

O=c1[nH]cc(F)c(=O)[nH]1 [5-FU, 5-fluorouracil, reference compound]
shrinkage of the uterus [13]: 22% | enlarged spleen, increase in mass ([13]; vs saline group): 61%
